Source: patent US20250332212A1, “METHOD FOR TREATING OR PREVENTING ALOPECIA” (Suzhou Mingren Pharmaceutical Biotechnology Co., Ltd., priority 2024, published 2025)
Square brackets hold non-standard residues; d marks the D form. Ends that are not written are not given here. pS = N[C@@H](COP(=O)(O)O)C(=O)O

Legend:
[1] = test system: TP-induced AGA model mice; experiment: TP-induced AGA model, Animal model I (JP1 intraperitoneal or topical skin-coating); format: in vivo, C57BL/6J male mice
Text: C57BL/6 mice were selected for modeling in this example according to the first design scheme (FIG. 1A). For more details, see “Animal model I” of “1. TP-induced AGA model” in “Experimental Methods” below.
(§1) The mice used in this study were 5-week-old C57BL/6J male mice (18-20 g), which were purchased from Jiangsu Jicui Pharmachem Biotechnology Co. All the animals used in the experiments were housed in the SPF-level environment of the Medical Laboratory Animal Center of Nanjing Medical University, and the relevant animal experimental operations were approved by the Animal Ethics Committee of Nanjing Medical University. The control group was left untreated, and the other groups were injected with TP subcutaneously on their backs every day. Two weeks later, the hair on the backs of the mice was shaved with an electric razor, covering an area of 2 cm×4 cm, and then the residual hair was removed with a hair removal cream. The subcutaneous injections of TP on the shaved backs of the mice in the AGA model was continued until the end of the experimental period, and the administration of TP in each of the treatment groups was begun on the 1st day of the dehairing process.
In addition to the normal control group (denoted as control) n=3, all mice injected subcutaneously with TP were randomly divided into the following groups (n=3): the model group (denoted as model), the 1 wt. % JP1 and 2% JP1 (intraperitoneal), the 1% JP1 and 2% JP1 (topical skin-coating, denoted as apply), the 5% minoxidil group, and the 2% JP1 (intraperitoneal) combined with 5% minoxidil group. The mice were administered continuously for 35 days, euthanized.
(§2) Mice were weighed every two days during the experiment. Skin color was assessed against skin score charts. The mice were euthanized and treated at the end of the experiment, and skin tissues were taken from the dorsal decorticated area of the mice. Some of the tissues were fixed with 4% paraformaldehyde solution and then paraffin sections were made for H&E or immunofluorescence staining, etc., and some of the tissues were stored in the refrigerator at −80° C. for relevant molecular expression assays (qRT-PCR, Western Blot, IP, etc.).
(§3) 8.1) Sampling and fixation: After the experiment, skin tissue was taken from the depilated area on the back of the mouse and placed in a 10 mL EP tube. 4% paraformaldehyde was added to the EP tube, and all tissues were immersed to denature and coagulate the proteins of the skin tissue. The original morphology and structure of the cells were maintained.
(§4) 8.6) H&E staining: the sections pretreated in distilled water were put into aqueous hematoxylin solution for a few minutes for staining. The color was separated in acid water and ammonia for a few seconds each. After rinsing in running water for 1 h, the sections were placed in distilled water for a few moments. The sections were dehydrated in 70% and 90% alcohol for 10 min each, and stained in alcoholic eosin stain for 2-3 min.

[2] = test system: β-catenin; experiment: β-catenin expression in skin tissue (qPCR, immunoblotting, immunofluorescence); format: in vivo, mouse
Description: (§5) 4.1) Protein extraction: 70 mg of skin tissue was placed in a 1.5 mL centrifuge tube, and 500 μL of tissue lysate RIPA containing protease inhibitor and phosphatase inhibitor was added. The tissue was placed on an ice box, pulverized by a tissue grinder, and then ultrasonically crushed to obtain a tissue suspension, which was then placed in a rotary windmill at 4° C. to be lysed for 2 h. The centrifuge was set at 12,000×g, 4° C., centrifuged for 15 min, and the supernatant was collected as the total protein.
(§6) 5.1) Heating of protein samples: the total protein content of each tissue was 50 μg; calculate the volume of a corresponding protein sample, make up the volume with saline to 16 μL, then add 4 μL of 5×SDS sampling buffer, heat at 100° C. for 5 min, and then cool at room temperature and store at −20° C.
5.7) Primary antibody incubation: the cut protein bands were placed into the corresponding primary antibody and incubated at 4° C. on a shaker overnight, washed with TBST 3 times for 10 min/time.
(§7) 7.1) Dilute the specific gene amplification primers to 10 µM in ddH2O, prepare the qPCR reaction system according to the instructions in the kit and add them sequentially into a 384-well plate.
(§8) 7.3) Relative mRNA expression levels of genes were calculated by the […] relative quantification method using GAPDH as an internal reference.
(§9) 9.5) Primary antibody incubation: the tissue was circled by the histochemical pen, about 50 μL of primary antibody was added dropwise to the tissue, and incubated in a wet box overnight at 4° C., washed 3 times with PBS.

[3] = test system: integrin β1; experiment: Integrin β1 expression in skin tissue (qPCR, immunoblotting, immunofluorescence); format: in vivo, mouse
Text: In this example, the mRNA expression levels of RGD-targeting molecules in the skin tissues of three groups of mice, namely, the AGA model control group, the model group and the JP1-treated group, were further examined.
To verify whether JP1 targeted integrin molecules are localized in hair follicles in the skin tissue, this example detected the expression levels, tissue localization, and distribution of integrin αv and integrin β1 in the skin tissue of the mouse model in Example 6 using immunofluorescence staining.
as §5, §6, §7, §8, §9

[4] = test system: TP-induced AGA model mice; experiment: TP-induced AGA model, Animal model III (specific inhibition of SP1 by MTA); format: in vivo, C57BL/6J male mice
Text: To verify that JP1 promotes AGA follicle regeneration through the activation of the Wnt/β-catenin signaling pathway via the MAPK/E2F1/SP1 signaling axis, the example constructed a mouse model of AGA with specific inhibition of SP1 (FIG. 15A). The specific experimental details are described according to “Animal model III” of “1. TP-induced AGA model” in “Experimental Methods”.
To further confirm that JP1 promotes the growth of hair follicles on the back of AGA model mice through the SP1-regulated Wnt/β-catenin signaling pathway at the histomorphometric level, H&E staining was performed on the skin tissues of the model mice of Example 15 at different time points (days 4, 8, and 12 post-intervention).
as §1
In addition to the normal control group (denoted as control) n=20, all mice injected subcutaneously with TP were randomly divided into the following groups (n=20): the model group (denoted as model), the 1% JP1 (skin-coated), and the 1% JP1+MTA group. […] MTA was administered at a dose of 0.3 mg/kg/d, qd, intraperitoneally, 100 μL/dose.
as §2, §3, §4

[5] = H&E longitudinal section, each JP1 treatment group vs model and solvent groups
[6] = 1% JP1 skin-coated, MTA 0.3 mg/kg/d intraperitoneally

In the case of “FPGSDRF-RGD (FPG[pS]DRFRGD) [JP1, amino acid S is phosphorylated; JWA peptide]”, the “hair growth index (skin color score) vs model group” value (“hair growth index … vs model group” below) ([1]; 1% JP1, intraperitoneal injection, P>0.05) is reported as “statistically not significant”, the “hair growth index (skin color score) vs solvent group (vehicle (apply))” value ([1]; 2% JP1 (apply), topical skin coating) is reported as “higher than that of the solvent group” and the “hair growth index … vs model group” value ([1]; 2% JP1 (apply), topical skin coating, P<0.05) is reported as “higher than that of the model group”. The “hair growth index … vs model group” value ([1]; 2% JP1, intraperitoneal injection, P<0.001) was “significantly higher than that of the model group”, the “hair growth (skin appearance on the back)” value ([1]; AGA mice, JP1 injected intraperitoneally or applied to the skin) was “promoted hair growth” and the dermal layer thickness [1, 5] was “increased dermal layer thickness”. For the same substance, the hair follicle length [1, 5] was “longer hair follicle length”, the “difference in body weight gain between groups” value ([1]; during mouse modeling, P>0.05) was “not statistically significant” and the “effect on hair follicle cycle relative to minoxidil” value ([1]; skin of AGA model mice) was “comparable to the effect of minoxidil”. The “hair follicle cycle (resting phase / anagen phase)” value ([1]; skin of AGA model mice) was “shorten the resting phase of the hair follicle”, the β-catenin immunohistofluorescence staining [2] was “trend consistent with the results of protein immunoblotting experiments” and the β-catenin protein expression ([2]; protein immunoblotting, dose-effect relationship for JP1) was “increased”. The “β-catenin mRNA expression vs model group” value ([2]; qPCR) was “increased”, the “integrin β1 expression, immunofluorescence staining” value ([3]; each JP1 intervention group, localized in the site of hair follicles) was “elevated” and the “integrin β1 protein level (TP-down-regulated)” value ([3]; skin tissue, immunoblotting, JP1 P<0.01) was “reversed”. For the same substance, the “integrin β1 expression at the end of the model” value ([3]; skin tissue, qPCR, P<0.01) was “returned to control levels”, the “integrin β1 mRNA expression after JP1 intervention” value ([3]; skin tissue, qPCR, decreased in TP model group, P<0.01) was “significantly elevated” and the “skin color on the back, day 8” value [4, 6] was “turned gray”. For the same substance, the “skin color on the back, day 10” value [4, 6] was “changed significantly to black-gray”, the “hair follicle morphology at day 8 vs 1% JP1+MTA group” value ([4]; H&E longitudinal section, 1% JP1) was “hair follicles extended downward and the bulbous part of hairs expanded” and the “diameter of the hair bulb” value ([4]; H&E, day 12, 1% JP1 P<0.001) was “increased”. The “thickness of the dermis” value ([4]; H&E, day 12, 1% JP1 P<0.001) was “increased” and the “total number of hair follicles vs model group and 1% JP1+MTA group” value ([4]; skin transection, day 8 and day 12, P<0.001) was “significantly more”.
